The structures appear in SMILES notation.

One assay deals with T1, human TGR5 (h-TGR5) (Homo sapiens, UniProt Q8TDU6).
T1 construct: expressed in transfected cells
T1 sequence (Q8TDU6 1-330): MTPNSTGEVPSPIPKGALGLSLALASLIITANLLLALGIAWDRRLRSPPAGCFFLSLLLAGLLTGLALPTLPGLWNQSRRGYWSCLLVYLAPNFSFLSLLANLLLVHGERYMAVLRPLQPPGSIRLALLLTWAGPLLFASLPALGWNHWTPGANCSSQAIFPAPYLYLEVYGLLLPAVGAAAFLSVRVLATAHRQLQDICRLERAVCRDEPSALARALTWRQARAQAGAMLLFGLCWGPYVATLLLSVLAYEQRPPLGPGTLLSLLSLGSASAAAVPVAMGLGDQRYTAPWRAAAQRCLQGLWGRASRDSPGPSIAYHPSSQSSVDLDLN
Nature of the assay: TGR5/CRE-Luciferiase Assay (HEK 293 hTGR5/CRE-Luc cells). It counts as cell-based. The note with it: h-TGR5 CRE-Luc EC50, Table 1; read-out: CRE-Luc (EC50). Summed up:
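HEK293 cells stably carrying hTGR5 and a CRE-luciferase reporter were exposed to serially diluted compounds (diluted in DMEM with 5% DMSO) for 6 h. Cells were then lysed in luciferase buffer, luminescence was read, and EC50 values were derived from dose-response curves.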

For a further assay, the target named is T2, h-TGR5 (Homo sapiens, UniProt Q8TDU6).
T2 construct: expressed in transfected cells
T2 sequence (Q8TDU6 1-330): T1 sequence (Q8TDU6 1-330)
Nature of the assay: TGR5 cAMP Assay using Cisbio cAMP Dynamic2 htrf kit (hTGR5CRE-luc HEK 293 cells). Type of assay: cell-based. The note with it: h-TGR5 cAMP EC50, Table 1; read-out: cAMP (EC50). The procedure, abridged: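 […], 4000 hTGR5CRE-luc HEK 293 cells per well, with 0.5 mM IBMX and d2-cAMP, were incubated 30 min at room temperature with compounds in 8-point half-log series, in quadruplicate.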

The EC50 is the concentration that produces a half-maximal response. Take `COc1cc(C(C)(C)c2cnc(COc3ccc(Cl)c(-c4nnn[nH]4)c3)n2-c2ccc(F)cc2)ccc1Cl` [5-[2-chloro-5-({[5-{1-[4-chloro-3-(methyloxy)phenyl]-1-methylethyl}-1-(4-fluorophenyl)-1H-imidazol-2-yl]methyl}oxy)phenyl]-1H-tetrazole]: the half-maximal effective concentration (EC50) is below 0.1 µM on human TGR5 (h-TGR5) and 0.1 to 1 µM at h-TGR5.
For `COc1cc(C(C)(C)c2cnc(SCc3c(F)cc(OCCCNC(=N)N)cc3F)n2-c2ccc(F)cc2)ccc1F` [1-(3-{[3,5-difluoro-4-({[5-{1-[4-fluoro-3-(methyloxy)phenyl]-1-methylethyl}-1-(4-fluorophenyl)-1H-imidazol-2-yl]thio}methyl)phenyl]oxy}propyl)guanidine] the same measures were below 0.1 µM and below 0.1 µM.
In the same order, the values of `COc1cc(C(C)(C)c2cnc(SCc3c(F)ccc(OCCCNC(=N)N)c3Cl)n2-c2ccc(F)cc2)ccc1F` [1-(3-{[2-chloro-4-fluoro-3-({[5-{1-[4-fluoro-3-(methyloxy)phenyl]-1-methylethyl}-1-(4-fluorophenyl)-1H-imidazol-2-yl]thio}methyl)phenyl]oxy}propyl)guanidine] are below 0.1 µM and below 0.1 µM.
In the same order, the values of `COc1cc(C(C)(C)c2cnc(SCc3c(F)cc(C(=O)NC4CCN(c5nnn[nH]5)CC4)cc3Cl)n2-c2ccc(F)cc2)ccc1Cl` [3-chloro-4-({[5-{1-[4-chloro-3-(methyloxy)phenyl]-1-methylethyl}-1-(4-fluorophenyl)-1H-imidazol-2-yl]thio}methyl)-5-fluoro-N-[1-(1H-tetrazol-5-yl)piperidin-4-yl]benzamide] are below 0.1 µM and below 0.1 µM.
Regarding `COc1cc(-n2c(C(C)(C)c3ccc(S(N)(=O)=O)c(Cl)c3)cnc2SCc2c(F)cc(C(=O)NCCS(=O)(=O)O)cc2F)ccc1F` [2-{[(4-{[(5-{1-[4-(aminosulfonyl)-3-chlorophenyl]-1-methylethyl}-1-[4-fluoro-3-(methyloxy)phenyl]-1H-imidazol-2-yl)thio]methyl}-3,5-difluorophenyl)carbonyl]amino}ethanesulfonic acid], the EC50 at human TGR5 (h-TGR5) and at h-TGR5 was below 0.1 µM each time.
Consider `CC(C)(c1ccc(Cl)c(Cl)c1)c1cnc(SCc2cc(S(N)(=O)=O)c(Cl)cc2Cl)n1-c1ccc(F)cc1` [2,4-dichloro-5-[({5-[1-(3,4-dichlorophenyl)-1-methylethyl]-1-(4-fluorophenyl)-1H-imidazol-2-yl}thio)methyl]benzenesulfonamide], for which the EC50 is below 0.1 µM on human TGR5 (h-TGR5) and 0.1 to 1 µM on h-TGR5.
For `COc1ccc(C(C)(C)c2cnc(CN(C)c3c(F)cccc3Cl)n2-c2ccc(F)cc2)cc1OC` [N-{[5-{1-[3,4-bis(methyloxy)phenyl]-1-methylethyl}-1-(4-fluorophenyl)-1H-imidazol-2-yl]methyl}-2-chloro-6-fluoro-N-methylaniline] the same measures were below 0.1 µM and below 0.1 µM.
`COc1cc(-n2c(C(C)(C)c3ccc(Cl)c(Cl)c3)cnc2SCc2c(F)cc(C(=O)NCCS(=O)(=O)O)cc2F)ccc1F` [2-[({4-[({5-[1-(3,4-dichlorophenyl)-1-methylethyl]-1-[4-fluoro-3-(methyloxy)phenyl]-1H-imidazol-2-yl}thio)methyl]-3,5-difluorophenyl}carbonyl)amino]ethanesulfonic acid]: the concentration for a half-maximal effect (EC50) on human TGR5 (h-TGR5) and at h-TGR5 was below 0.1 µM in each case.
As for `CC(C)(c1ccc(Cl)c(Cl)c1)c1cnc(SCc2ccc(OCCO)c(S(N)(=O)=O)c2)n1-c1ccc(F)cc1` [5-[({5-[1-(3,4-dichlorophenyl)-1-methylethyl]-1-(4-fluorophenyl)-1H-imidazol-2-yl}thio)methyl]-2-[(2-hydroxyethyl)oxy]benzenesulfonamide], the EC50 was below 0.1 µM on human TGR5 (h-TGR5) and 0.1 to 1 µM at h-TGR5.
Take `COc1cc(C(C)(C)c2cnc(SCc3c(F)cc(CCCCCNC(=N)N)cc3F)n2-c2ccc(F)cc2)ccc1Cl` [1-{5-[4-({[5-{1-[4-chloro-3-(methyloxy)pheny1]-1-methylethyl}-1-(4-fluorophenyl)-1H-imidazol-2-yl]thio}methyl)-3,5-difluorophenyl]pentyl}guanidine]: the half-maximal effective concentration (EC50) on human TGR5 (h-TGR5) and on h-TGR5 was below 0.1 µM each time.
In the case of `COc1cc(C(C)(C)c2cnc(SCc3ccc(C(=O)O)c(F)c3)n2-c2ccc(F)cc2)ccc1Cl` [4-({[5-{1-[4-chloro-3-(methyloxy)phenyl]-1-methylethyl}-1-(4-fluorophenyl)-1H-imidazol-2-yl]thio}methyl)-2-fluorobenzoic acid], the EC50 on human TGR5 (h-TGR5) was 0.1 to 1 µM; on h-TGR5 it was below 0.1 µM.
Take `CC(C)(c1ccc(Cl)c(Cl)c1)c1cnc(SCc2ccc(S(=O)(=O)NC(=O)NN3CCCC3)cc2Cl)n1-c1ccc(F)cn1` [3-chloro-4-[({5-[1-(3,4-dichlorophenyl)-1-methylethyl]-1-(5-fluoropyridin-2-yl)-1H-imidazol-2-yl}thio)methyl]-N-[(pyrrolidin-1-ylamino)carbonyl]benzenesulfonamide]: the 50% effective concentration (EC50) at human TGR5 (h-TGR5) and at h-TGR5 was 0.1 to 1 µM each time.
In the case of `CC(C)(c1ccc(Cl)c(Cl)c1)c1cnc(CCc2c(F)cc(C(=O)NCCS(=O)(=O)O)cc2Cl)n1-c1ccc(F)cc1` [2-({[3-chloro-4-(2-{5-[1-(3,4-dichlorophenyl)-1-methylethyl]-1-(4-fluorophenyl)-1H-imidazol-2-yl}ethyl)-5-fluorophenyl]carbonyl}amino)ethanesulfonic acid], the EC50 at human TGR5 (h-TGR5) and at h-TGR5 was below 0.1 µM each time.
As for `CC(C)NC(=O)NS(=O)(=O)c1ccc(CSc2ncc(C(C)(C)c3ccc(Cl)c(Cl)c3)n2-c2ccc(F)cc2)c(Cl)c1` [3-chloro-4-[({5-[1-(3,4-dichlorophenyl)-1-methylethyl]-1-(4-fluorophenyl)-1H-imidazol-2-yl}thio)methyl]-N-{[(1-methylethyl)amino]carbonyl}benzenesulfonamide], the EC50 on human TGR5 (h-TGR5) and on h-TGR5 was 0.1 to 1 µM throughout.
Consider `COc1cc(C(C)(C)c2cnc(SCc3c(F)cc(C(=O)N[C@@H](CCCN)C(=O)O)cc3Cl)n2-c2ccc(F)cc2)ccc1Cl` [N-2-{[3-chloro-4-({[5-{1-[4-chloro-3-(methyloxy)phenyl]-1-methylethyl}-1-(4-fluorophenyl)-1H-imidazol-2-yl]thio}methyl)-5-fluorophenyl]carbonyl}-L-ornithine], for which the concentration for a half-maximal effect (EC50) at human TGR5 (h-TGR5) and at h-TGR5 was below 0.1 µM throughout.
As for `COc1ccc(C(C)(C)c2cnc(SCc3cc(F)ccc3Cl)n2-c2ccc(F)cc2)cc1Cl` [2-{[(2-chloro-5-fluorophenyl)methyl]thio}-5-{1-[3-chloro-4-(methyloxy)phenyl]-1-methylethyl}-1-(4-fluorophenyl)-1H-imidazole], the EC50 on human TGR5 (h-TGR5) was below 0.1 µM; at h-TGR5 it was 0.1 to 1 µM.
In the same order, the values of `CCCNC(=O)NS(=O)(=O)c1ccc(CSc2ncc(C(C)(C)c3ccc(Cl)c(OC)c3)n2-c2ccc(F)cc2)c(Cl)c1` [3-chloro-4-({[5-{1-[4-chloro-3-(methyloxy)phenyl]-1-methylethyl}-1-(4-fluorophenyl)-1H-imidazol-2-yl]thio}methyl)-N-[(propylamino)carbonyl]benzenesulfonamide] are below 0.1 µM and below 0.1 µM.
For `COc1cc(C(C)(C)c2cnc(SCc3ccc(CCCNC(=N)N)c(C(=O)O)c3)n2-c2ccc(F)cc2)ccc1Cl` [2-(3-{[amino(imino)methyl]amino}propyl)-5-({[5-{1-[4-chloro-3-(methyloxy)phenyl]-1-methylethyl}-1-(4-fluorophenyl)-1H-imidazol-2-yl]thio}methyl)benzoic acid] the same measures were below 0.1 µM and 0.1 to 1 µM.
For `CC(C)(c1ccc2onc(N)c2c1)c1cnc(SCc2c(F)cc(C(=O)O)cc2F)n1-c1ccc(F)cc1` [4-[({5-[1-(3-amino-1,2-benzisoxazol-5-yl)-1-methylethyl]-1-(4-fluorophenyl)-1H-imidazol-2-yl}thio)methyl]-3,5-difluorobenzoic acid] the same measures were below 0.1 µM and below 0.1 µM.
As to `CC(C)(c1ccc(F)c(F)c1)c1cnc(SCc2ccc(S(=O)(=O)NC(=O)NN3CCCC3)cc2Cl)n1-c1ccc(F)c(Cl)c1` [3-chloro-4-[({1-(3-chloro-4-fluorophenyl)-5-[1-(3,4-difluorophenyl)-1-methylethyl]-1H-imidazol-2-yl}thio)methyl]-N-[(pyrrolidin-1-ylamino)carbonyl]benzenesulfonamide], the EC50 was 0.1 to 1 µM at human TGR5 (h-TGR5) and 1 to 10 µM on h-TGR5.
For `COc1cc(C(C)(C)c2cnc(SCc3ccc(C#CCNC(=N)N)c(C(=O)O)c3)n2-c2ccc(F)cc2)ccc1Cl` [2-(3-{[amino(imino)methyl]amino}prop-1-yn-1-yl)-5-({[5-{1-[4-chloro-3-(methyloxy)phenyl]-1-methylethyl}-1-(4-fluorophenyl)-1H-imidazol-2-yl]thio}methyl)benzoic acid] the same measures were below 0.1 µM and below 0.1 µM.
In the same order, the values of `COc1ccc(C(C)(C)c2cnc(SCc3ccc(Cl)c(-c4nnn[nH]4)c3)n2-c2ccc(F)cc2)cc1Cl` [5-[2-chloro-5-({[5-{1-[3-chloro-4-(methyloxy)phenyl]-1-methylethyl}-1-(4-fluorophenyl)-1H-imidazol-2-yl]thio}methyl)phenyl]-1H-tetrazole] are below 0.1 µM and 0.1 to 1 µM.

For the origin of these results see patent US8785488B2 (Exelixis Patent Company LLC, priority 2009, dated 2014).
